Experimental data taken from publication PMC11061730, “Bacterial stigmasterol degradation involving radical flavin delta-24 desaturase and molybdenum-dependent C26 hydroxylase” (The Journal of Biological Chemistry, 2024).

Key:
[1] = target: T1, Δ24-steroid desaturase (Δ24-SD) (Sterolibacterium denitrificans, UniProt A0A7Z7MWF7+A0A7Z7MWR3); test: LC-MS/MS of tryptic peptides; acid denaturation; assay type: binding; conditions: covalent; histidyl residue near N terminus in both subunits
T1 construct: gene SDENCHOL_21263; alpha 63 kDa, beta 57 kDa; covalent FMN on a histidine of each subunit

[2] = substrate: CC[C@H](/C=C/[C@@H](C)[C@H]1CC[C@H]2[C@@H]3CCC4=CC(=O)C=C[C@]4(C)[C@H]3CC[C@]12C)C(C)C; test: UPLC assay of SDO to STO conversion, Michaelis-Menten fit; assay type: biochemical, Sterolibacterium denitrificans; conditions: 1 mM DCPIP as electron acceptor, 50 mM Mops/KOH pH 7.0, 6% (w/v) HPCD, 30 °C, aerobic

With Cc1cc2nc3c(=O)[nH]c(=O)nc-3n(C[C@H](O)[C@H](O)[C@H](O)COP(=O)(O)O)c2cc1C [flavin mononucleotide] the “LC-MS/MS of tryptic peptides; acid denaturation” value [1] was “contained flavin mononucleotide (FMN) modifications in both subunits”.

B1: Δ24-steroid desaturase (Δ24-SD) (Sterolibacterium denitrificans) (protein)
chain 1: MKNYDVIIIGGGINGLTTACYLQKAGLSVGVFEARGQCGAHCDTIELGRPGFLFNTHATWLVPAMSPPMADLELEKFNLELLGTDVIFAMPHADGTNTVQALDPGITMASIARHSEKDAALLGRIMEFGMMHMQEALEINGQMQYSRPTMALAERIAKLNDGLCKHLGLPIDGDDVMRMTGFELLELVYESEKVRLVPGTLGEYTGQWPLNRRVAPTVLGLCGMNPMAVHTAKGGSHALNHALVRCFVKHGGEIWTTCPVSKIIVENGRAVGIKLSEDALMPGEEIRAKNIVSNLTLTPTFTKLLGEEVIGPDWMRRIKYFNYDDPQLLGMYYAMKDAPVFKSAEYDPAIQRCWVGYFGPDSIDDVRNAQSQVMAGIMPTQTMGGWFNPTLADPSQAPAGHHVVSTWITVPPSPRKWGNKTLNGWSSWREGFGEALADTMDDLYEKMAPGFKDLIIERHINTPMDQENSNPSAVRGNMIGGSAIPEQAGENRPLPGVCVNGASRTFIPGLYLSNSIHPFGATHLASGYIAAVELAEDLGCRNQSWWISQPFEWFMGNLGNIPLNAGVADKWKV
chain 2: MSNETKFDAIVIGGGPNGLLAGAYLAKTGHKVVLFERRHETGGGLNTDEYFGFRFNLHAIYHLMAEKMPAWKDLDLANFGVRYLYPHVVAAFPFKDGSSLIFTRDVKETAESIAQFSKEDAAAYLAMWDEFQPMLDDYLIPMTYELPKPALDQLAEFGETEVGAKLAEISELSCLEVIDHYGFTHPRVRMALLSFPAMWGIHLADPLGFLYPLYLGRMLDAAFVKGGSHRLSSGMYRVFVKNGGTVIDENEVTRILVEDNRVTGVELQDGRRFMADAVVSTLNPVQTFKQLLPKDDVPYALHQAVDNWRWEERSFFGLHLGIDGGVRYNAQDPRVNEAMTVFIGLETEDELLDHLDRVDGKTTNGPEWLHIAQPTTFDKTMAPPNHSVIRAEAVVAYDPEWRARTPAFAAGCLDLIKQYATVDKVVQQRTVSPIDIEEKLTTMHRGSYKHGAYSTLQLGYLRPNDLCSCSETPIDGLFLGGASMYPGGMILGGPGYLAAQVTNDYLGEPVKK
notes: alpha 63 kDa, beta 57 kDa; covalent FMN on a histidine of each subunit
In the case of B1, the Km [2] is reported as 51.5 ± 8.2 µM.
